Measured values: patent US20080108641A1, “Compounds for treating inflammatory disorders, demyelinating disdorders and cancers” (priority 2006, published 2008)
Where two headings read alike, the source gives them in different places.

Key:
IL-10 = experiment: Mediator release, IL-10 (Con A-stimulated PBML, sandwich ELISA); format: cell-based; settings: Homo sapiens, read-out: % inhibition of IL-10 release, read-out: % Growth Inhibition
Experimental: (§1) In this experiment, test compound and/or vehicle were preincubated with human peripheral blood mononuclear leukocyte (PBML, 1×10^6/ml) in RPMI buffer pH 7.4 for 2 hours. Concanavalin A (Con A, 20 μg/ml) was then added to stimulate the cells overnight in 5% CO2 at 37° C. IL-4 and IL-10 cytokine levels in the conditioned medium were then quantified using a sandwich ELISA kit. Compounds were screened at 10, 1, 0.1, 0.01 and 0.001 μM.

[1] = system: T-lymphocyte cells isolated from thymus; experiment: Cell proliferation, T-Cell + Con A ([3H]thymidine incorporation); format: cell-based, balb/c mice; settings: Mus musculus
Experimental: T-lymphocyte cells isolated from thymus of balb/c mice weighing 17±1 g were used. Test compound and/or vehicle is incubated with the cells (4×10^6/ml) in the presence of 3 μg/mL Concanavalin A (Con A) in AIM-V medium pH 7.4 at 37° C. for 24 hours. [^3H]Thymidine (120 nM) was then added for an additional overnight incubation period. Thymidine incorporation was assessed by liquid scintillation counting. Compounds were screened at 10, 1, 0.1, 0.01 and 0.001 μM.
(§2) Test compound-induced suppression of cell proliferation by 50 percent or more (≧50%) relative to vehicle control response indicates significant inhibitory activity.

[2] = system: B-lymphocyte cells isolated from the spleen; experiment: Cell proliferation, B-Cell + LPS ([3H]thymidine incorporation); format: cell-based, balb/c mice; settings: Mus musculus, read-out: % Growth Inhibition
Experimental: B-lymphocyte cells isolated from the spleen of balb/c mice weighing 17±1 g were used. Test compound and/or vehicle were incubated with the cells (1.5×10^6/ml) in the presence of 10 μg/ml lipopolysaccharide (LPS) in AIM-V medium pH 7.4 at 37° C. for 24 hours. [^3H]Thymidine (120 nM) was then added for an additional overnight incubation period. Thymidine incorporation was assessed by liquid scintillation counting.
as §2

[3] = system: Experimental Autoimmune Encephalomyelitis (EAE); experiment: Acute stage Experimental Autoimmune Encephalomyelitis (EAE) model, daily dosing
Experimental: Accordingly, three randomized cohorts of guinea pigs with EAE induced by the method of Example 2, were treated, respectively, with 6 mg/kg of Symadex™ (full salt hydrate) and 0.35 mg/kg of mitoxantrone. Animals were treated daily, by intraperitoneal injection, for 15 days, starting on day 7 post immunization. Controls were treated with vehicle. We reasoned that 15 consecutive, 6 mg/kg doses of Symadex™ would represent a level of drug exposure that would be commensurate with the “20 mg/kg every 72 hours” regimen in Example 4 and consistent with a mid level exposure between the 20 mg/kg and the 40 mg/kg schedule given weekly, in Example 2. The mitoxantrone dose was selected to reflect a typical high dose given to rats or mice by daily dosing in the prior art, but allometrically scaled to the guinea pig.

IL-4 = experiment: Mediator release, IL-4 (Con A-stimulated PBML, sandwich ELISA); format: cell-based; settings: Homo sapiens, read-out: % Growth Inhibition
Experimental: as §1

FLT3 = biological target: T1, FLT3 (Homo sapiens, UniProt P36888); experiment: SelectScreen kinase assay against FLT3; format: biochemical; settings: ATP at 100 micromolar; for inhibition at 1 µM: 1000 nMolar, read-out: E1000 (percent inhibition at 1000 nMolar)
T1 construct: purchased Invitrogen, Inc. (SelectScreen platform)
T1 sequence (P36888 27-993): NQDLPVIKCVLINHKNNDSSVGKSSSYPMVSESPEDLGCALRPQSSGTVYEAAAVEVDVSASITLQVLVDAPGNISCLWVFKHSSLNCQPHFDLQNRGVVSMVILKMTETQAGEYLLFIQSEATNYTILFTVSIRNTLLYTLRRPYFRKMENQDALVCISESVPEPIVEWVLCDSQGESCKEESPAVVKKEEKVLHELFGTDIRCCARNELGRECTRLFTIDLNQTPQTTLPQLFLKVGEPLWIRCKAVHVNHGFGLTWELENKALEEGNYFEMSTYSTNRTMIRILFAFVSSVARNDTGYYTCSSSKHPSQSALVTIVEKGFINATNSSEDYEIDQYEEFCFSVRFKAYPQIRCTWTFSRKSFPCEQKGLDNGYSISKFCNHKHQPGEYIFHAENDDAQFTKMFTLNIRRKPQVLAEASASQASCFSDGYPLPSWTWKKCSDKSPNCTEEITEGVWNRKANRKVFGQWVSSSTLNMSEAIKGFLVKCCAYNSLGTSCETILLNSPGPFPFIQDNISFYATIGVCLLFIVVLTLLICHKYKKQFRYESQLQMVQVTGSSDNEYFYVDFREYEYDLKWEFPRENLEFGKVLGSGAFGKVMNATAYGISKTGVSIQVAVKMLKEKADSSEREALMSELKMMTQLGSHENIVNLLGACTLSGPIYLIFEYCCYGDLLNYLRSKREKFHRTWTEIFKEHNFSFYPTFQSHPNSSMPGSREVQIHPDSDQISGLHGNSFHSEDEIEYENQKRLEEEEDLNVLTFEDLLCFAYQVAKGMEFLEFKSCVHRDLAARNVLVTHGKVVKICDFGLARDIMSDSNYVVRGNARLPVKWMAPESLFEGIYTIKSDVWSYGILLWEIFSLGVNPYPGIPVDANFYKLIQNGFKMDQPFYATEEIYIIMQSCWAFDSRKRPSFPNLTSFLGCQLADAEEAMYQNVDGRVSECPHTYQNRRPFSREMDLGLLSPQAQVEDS
Experimental: The terms “IC50” and “EC50” are used interchangeably. As used herein, “EC50” refers to nMolar concentration at median percent inhibition determined by dose respose (DR) assay. As used herein, the term “E1000” refers to percent inhibition at 1000 nMolar determined by assay. EC50 was calculated based on dose response curve was fitted to 4 parameter Hill equation.
Testing of the compounds described in this invention was carried out using the SelectScreen™ platform from Invitrogen, Inc. (Carlsbad, Calif., USA) and the details of its performance are readily viewed via the web by linking to: http://www.invitrogen.com/downloads/SelectScrn_Brochure.pdf.
Briefly the approach is based on treating each specific kinase with a unique substrate and optical reporter system in the presence of ATP at 100 micromolar. In controls, the substrate is phosphorylated and a baseline optimal response is recorded.
The compounds were then re-tested by adding graded amounts of putative inhibitor which were added in 5 separate increments to generate a dose response curve. The latter is obtained by fitting to a 4 parameter Hill equation, a sigmoid saturation equation.
For the compounds of this invention, the experimental condition were as follows. The 2×FLT3/Tyr 02 peptide mixture was prepared in 50 mM HEPES pH 7.5, 0.01 BRIJ-35, 10 mM MgCl2, 1 mM EGTA. The final 10 uL kinase reaction consists of 0.6-76.0 ng FLT3 and 2 uM Tyr 02 peptide in 50 mM HEPES pH 7.5, 0.01% BRIJ-35, […], 1 mM EGTA. After 1 hour kinase reaction incubation, 5 uL of a 1:64 dilution of development reagent A was added.
EC50 and E1000 values for selected compounds of formula (IB) were measured according to the protocol described above in Example 9.

[4] = system: arthritis induced by monoclonal antibodies raised against type II collagen, plus LPS; settings: Lange et al., 2005; cited from earlier work

O=C1c2c(O)ccc(O)c2C(=O)c2c(NCCNCCO)ccc(NCCNCCO)c21 [Mitoxantrone, reference compound]
inhibition at 0.001 µM (IL-10; 1 nM): 2%
inhibition at 0.01 µM (IL-10; 10 nM): 1%
inhibition at 0.1 µM (IL-10; 0.1 μM): 5%
inhibition at 1 µM (IL-10; 1 μM): 60%
inhibition at 10 µM (IL-10; 10 μM): 102%
inhibition at 0.001 µM ([1]; 1 nM, read-out: % Growth Inhibition): -1%
inhibition at 0.01 µM ([1]; 10 nM, read-out: % Growth Inhibition): 19%
inhibition at 0.1 µM ([1]; 0.1 μM, read-out: % Growth Inhibition): 80%
inhibition at 1 µM ([1]; 1 μM, read-out: % Growth Inhibition): 103%
inhibition at 10 µM ([1]; 10 μM, read-out: % Growth Inhibition): 103%
IC50 ([1]; T-Cell + Con A proliferation, read-out: IC50): 32 nM
inhibition at 0.001 µM ([2]; 1 nM): 18%
inhibition at 0.01 µM ([2]; 10 nM): 54%
inhibition at 0.1 µM ([2]; 0.1 μM): 93%
inhibition at 1 µM ([2]; 1 μM): 102%
inhibition at 10 µM ([2]; 10 μM): 102%
clinical score course (neurological impairment) ([3]; daily i.p. for 15 days from day 7 post immunization, Symadex 6 mg/kg, mitoxantrone 0.35 mg/kg): initial rise in neurological impairment is arrested
statistical significance of therapeutic effect on clinical score vs control (Mann-Whitney rank-sum) ([3]; daily i.p. for 15 days, Symadex 6 mg/kg (p below 0.05), mitoxantrone 0.35 mg/kg): did not reach statistical significance
weight gain profile ([3]; daily i.p. for 15 days, Symadex 6 mg/kg, mitoxantrone 0.35 mg/kg, Symadex vs mitoxantrone p 0.034): impairs weight gain
pathology score: meningeal inflammation (M) vs control ([3]; necropsy after 15 daily doses): statistically significant reduction
pathology scores: perivascular cuffing (P), myelitis (E) and demyelination (D) vs control ([3]; necropsy after 15 daily doses, p value<0.05 from control): reducing the perivascular cuffing (P), myelitis (E) and demyelination (D)
inhibition at 0.001 µM (IL-4; 1 nM): 11%
inhibition at 0.01 µM (IL-4; 10 nM): 13%
inhibition at 0.1 µM (IL-4; 0.1 μM): 18%
inhibition at 1 µM (IL-4; 1 μM): -4%
inhibition at 10 µM (IL-4; 10 μM): 108%

CN(C)CCCNc1ccc2ncn3c4ccc5[nH]ncc5c4c(=O)c1c23 [(IVA)]
EC50 (FLT3; indazoles): 9 nM

CN(C)CCCCCNc1ccc2ncn3c4ccc5[nH]ncc5c4c(=O)c1c23 [(IIIA)]
inhibition at 1 µM (FLT3; indazoles): 96%
EC50 (FLT3; indazoles): 16 nM

O=c1c2c(NCCN3CCOCC3)ccc3ncn(c4ccc5[nH]ncc5c14)c32 [Compound (VA)]
inhibition at 1 µM (FLT3; indazoles): 87%
EC50 (FLT3; indazoles): 32 nM

CN(C)CCNc1ccc2ncn3c4ccc(OC(=O)OC(C)(C)C)cc4c(=O)c1c23 [(VB)]
inhibition at 1 µM (FLT3; esters of formula (IB)): 92%
EC50 (FLT3; esters of formula (IB)): 96 nM

CN(Cc1cnc2nc(N)nc(N)c2n1)c1ccc(C(=O)N[C@@H](CCC(=O)O)C(=O)O)cc1 [Methotrexate]
benefit in antibody induced arthritis models [4]: diminishing benefit

CCN(CC)CCNc1ccc2ncn3c4ccc(OC(C)=O)cc4c(=O)c1c23 [Compound (VIB), Acetic acid 5-(2-diethylamino-ethylamino)-6-oxo-6H-2,10b-diaza-aceanthrylen-8-yl ester]
inhibition at 1 µM (FLT3; esters of formula (IB)): 64%
EC50 (FLT3; esters of formula (IB)): 471 nM
